Reference: the NIST ThermoML archive (doi:10.1021/je800940j)

Test: xn = mol fraction of the nth substance listed
Conditions: 101 kPa, Liquid; for viscosity: Concentric cylinders viscometry

C1CCCCC1 [cyclohexane] + Cc1ccccc1
Conditions | mass density, 283.15 K [kg/m3] | mass density, 293.15 K [kg/m3] | mass density, 303.15 K [kg/m3] | mass density, 313.15 K [kg/m3] | mass density, 323.15 K [kg/m3] | viscosity, 283.15 K [mPa·s] | viscosity, 293.15 K [mPa·s] | viscosity, 303.15 K [mPa·s] | viscosity, 313.15 K [mPa·s] | viscosity, 323.15 K [mPa·s]
x1 = 0.0958 | 866.15 | 856.9 | 847.5 | 838.15 | 828.65 | 0.6712 | 0.5995 | 0.5395 | 0.4879 | 0.4428
x1 = 0.196 | 855.85 | 846.6 | 837.2 | 827.8 | 818.35 | 0.6623 | 0.5908 | 0.5306 | 0.4776 | 0.431
x1 = 0.2986 | 846 | 836.7 | 827.3 | 817.9 | 808.45 | 0.6792 | 0.6051 | 0.543 | 0.487 | 0.4426
x1 = 0.3988 | 836.5 | 827.2 | 817.8 | 808.4 | 798.9 | 0.6948 | 0.6171 | 0.5524 | 0.4971 | 0.4491
x1 = 0.4974 | 827.65 | 818.35 | 808.9 | 799.45 | 789.95 | 0.7218 | 0.6378 | 0.5683 | 0.5095 | 0.4589
x1 = 0.5989 | 818.8 | 809.4 | 800 | 790.5 | 781 | 0.7635 | 0.67 | 0.5935 | 0.5294 | 0.4735
x1 = 0.6977 | 810.1 | 800.7 | 791.3 | 781.8 | 772.25 | 0.8203 | 0.7137 | 0.6274 | 0.5553 | 0.4886
x1 = 0.7998 | 802.5 | 793.1 | 783.65 | 774.15 | 764.5 | 0.9103 | 0.7838 | 0.6824 | 0.5987 | 0.5292
x1 = 0.8994 | 794.8 | 785.5 | 776.1 | 766.5 | 756.9 | 0.9994 | 0.8472 | 0.7271 | 0.6373 | 0.5583
x1 = 1 | 787.95 | 778.7 | 769.2 | 759.65 | 749.9 | 1.18 | 0.9847 | 0.8295 | 0.7061 | 0.5978
